US12622977B2, “Antibody drug conjugate” (CHIA TAI TIANQING PHARMACEUTICAL GROUP CO., LTD., priority 2020, dated 2026)

How the values were obtained:
Assay type in all cases: cell-based
[1] = test system: NCI-N87 Her2++ tumor cells; experiment: Killing of Her2 positive target cell NCI-N87 with human PBMC effector cells (ADCC, CytoTox96); settings: effector-to-target ratio 10:1
Experimental: The killing effects of the anti-Her2 bispecific antibodies on target cells (NCI-N87 Her2++, source: the Cell Bank of Type Culture Collection Committee of the Chinese Academy of Sciences) were studied using NK cells provided by human PBMCs (peripheral blood mononuclear cells), and the in vitro activity of the anti-Her2 bispecific antibodies was assessed by EC50 value.
The specific procedures are as follows: NCI-N87 cells were adjusted to a cell density of 3×10^5 cells/mL using 1640 medium containing 2% FBS (fetal bovine serum) and seeded in a 96-well cell culture plate (eppendorf, Cat. No. 0030730199) at 50 μL per well. […] Human PBMCs were adjusted to a cell density of 1.5×10^6 cells/mL using medium for experiment and added at 100 μL per well. An administration group (target cell+effector cell+antibody or control drug), a target cell group (NCI-N87 cell), an effector cell group (human PBMC), a target cell+effector cell group, a blank control group (medium) and a lysis solution control group, and a target cell maximum release group (target cell+lysis solution) were set, with the effector-to-target cell ratio being 10:1. […] After 45 min, the cell lysis rates were measured using a CytoTox96® nonradioactive cytotoxicity assay (Promega, G1780). […]

[2] = test system: JIMT-1 tumor cells; experiment: Killing of trastuzumab-resistant cell JIMT-1 with human PBMC effector cells (ADCC, CytoTox96); settings: effector-to-target ratio 20:1
Experimental: The killing effects of the anti-Her2 bispecific antibodies on target cells (JIMT-1, source: AddexBio, Cat. No. C0006005) were studied using NK cells provided by human PBMCs (peripheral blood mononuclear cells), and the in vitro activity of the anti-Her2 bispecific antibodies was assessed by EC50 value.
The specific procedures are as follows: JIMT-1 cells were adjusted to a cell density of 3×10^5 cells/mL using 1640 medium containing 2% FBS (fetal bovine serum) and seeded in a 96-well cell culture plate (eppendorf, Cat. No. 0030730199) at 50 μL per well. […] Human PBMCs were adjusted to a cell density of 1.5×10^6 cells/mL using medium for experiment and added at 100 μL per well. An administration group (target cell+effector cell+antibody or control drug), a target cell group (JIMT-1BT474 cell), an effector cell group (human PBMC), a target cell+effector cell group, a blank control group (medium) and a lysis solution control group, and a target cell maximum release group (target cell+lysis solution) were set, with the effector-to-target cell ratio being 20:1. 45 min prior to the assay, 20 μL/well of lysis solution (Promega, Cat. No. G182A) was added to the target cell maximum release group and the lysis solution control group. After 45 min, the cell lysis rates were measured using a CytoTox96® nonradioactive cytotoxicity assay (Promega, G1780). […]

[3] = test system: HER2 positive tumor cells NCI-N87; experiment: Proliferation inhibition of NCI-N87 cells by DXD and DDDXD (CCK-8); settings: Homo sapiens, NCI-N87, 120 h
Experimental: DXD and DDDXD were pre-diluted to 140,000 ng/mL in culture medium and labeled as S1, and then five-fold serially diluted to obtain their corresponding reference samples S1-S9; the final drug concentration range was 35000 ng/mL to 0.0896 ng/mL with 9 concentrations in total. HER2 positive tumor cells NCI-N87 in the logarithmic growth phase were collected, adjusted to a density of 1×10^5 cells/mL, and plated at 100 μL per well, and a blank well without any cells was set as a control. The above serially diluted two samples were added at 50 μL per well. The plate was incubated in an incubator at 37° C. with 5% CO2 for 5 days. The culture medium was discarded, and CCK-8 (Dojindo, Japan, Cat. No. CK04) working solution was added at 100 μL per well. The plate was incubated for 4-5 h for color developing and placed in a microplate reader (manufacturer: Thermo, Model: VarioskanFlash). The absorbance values at a wavelength of 450 nm were read and recorded using a reference wavelength of 630 nm. The proliferation inhibition against the tumor cells were calculated.

T-DM1
EC50 [1]: 73.9 pM
EC50 [2]: 83.6 pM

CC[C@@]1(O)C(=O)OCc2c1cc1n(c2=O)Cc2c-1nc1cc(F)c(C)c3c1c2[C@@H](NC(=O)CO)CC3 [DXD]
IC50 [3]: 4450 pM
